In US10766884B2 (Pfizer Inc., priority 2018, dated 2020):

Columns and labels:
[1] = target: CDK4/Cyclin D1 (Homo sapiens (Human), UniProt P11802); assay: CDK4/Cyclin D1 mobility shift assay; type: biochemical; conditions: activated CDK4/Cyclin D1, 3.5 mM ATP, Morrison fit; read-out: CDK4D1 Ki
[2] = target: CDK4 (Homo sapiens (Human), UniProt P11802); assay: Phospho-Serine 795 Rb ELISA assay in JEKO-1 cells; type: cell-based; conditions: overnight treatment, phospho-Rb S795, read-out: CDK4 pRB S795 ELISA JEKO-1 cells IC50
Method: (§1) JEKO-1 or MV4-11 cells were seeded at 15,000 or 20,000 cells per well, respectively, in 100 μL growth media and allowed to incubate at 37° C. with 5% CO2 overnight. The following day, compounds were serially diluted from a 10 mM top dose for an 11-point 3-fold dilution curve in DMSO. Compounds were intermediately diluted 1:200 into growth media prior to diluting 1:5 on cells for final concentration 10 μM to 0.1 nM in 0.1% DMSO on cells. JEKO-1 and MV4-11 cells were treated were treated overnight, at 37° C. with 5% CO2. Cells were lysed in 100 μL/well CST lysis buffer on ice and transferred to pre-coated and blocked anti-phospho-Ser795 Rb ELISA plates for overnight incubation at 4° C. Plates were washed to remove residual, unbound cellular proteins and total Rb detection antibody added for 90 minutes at 37° C. Following wash to remove unbound total Rb antibody, the HRP tagged antibody was allowed to bind for 30 minutes at 37° C. Following wash to remove unbound HRP antibody, Glo Substrate Reagent was added and incubated protected from light for 5 to 10 minutes. Plates were read in luminescence mode and IC50 values calculated.

[3] = target: CDK6 (Homo sapiens (Human), UniProt Q00534); assay: Phospho-Serine 795 Rb ELISA assay in MV4-11 cells; type: cell-based; conditions: overnight treatment, phospho-Rb S795, read-out: CDK6 pRB S795 ELISA MV4-11 cells IC50
Method: as §1

[4] = target: CDK6/Cyclin D3 (Homo sapiens (Human), UniProt Q00534); assay: CDK6/Cyclin D3 mobility shift assay; type: biochemical; conditions: activated CDK6/Cyclin D3, 3.5 mM ATP, Morrison fit; read-out: CDK6_D3 Ki
Chain of CDK6/Cyclin D3 (Q00534 whole entry): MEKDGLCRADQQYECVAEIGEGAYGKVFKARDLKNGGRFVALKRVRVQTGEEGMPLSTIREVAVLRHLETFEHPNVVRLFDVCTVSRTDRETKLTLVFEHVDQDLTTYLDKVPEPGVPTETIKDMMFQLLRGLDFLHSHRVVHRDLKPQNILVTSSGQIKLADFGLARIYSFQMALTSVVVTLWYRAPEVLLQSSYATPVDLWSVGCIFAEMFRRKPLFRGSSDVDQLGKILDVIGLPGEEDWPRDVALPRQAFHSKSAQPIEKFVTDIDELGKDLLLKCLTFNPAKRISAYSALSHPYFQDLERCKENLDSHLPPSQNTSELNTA
Chain of CDK6/Cyclin D3 (P30281 whole entry partner): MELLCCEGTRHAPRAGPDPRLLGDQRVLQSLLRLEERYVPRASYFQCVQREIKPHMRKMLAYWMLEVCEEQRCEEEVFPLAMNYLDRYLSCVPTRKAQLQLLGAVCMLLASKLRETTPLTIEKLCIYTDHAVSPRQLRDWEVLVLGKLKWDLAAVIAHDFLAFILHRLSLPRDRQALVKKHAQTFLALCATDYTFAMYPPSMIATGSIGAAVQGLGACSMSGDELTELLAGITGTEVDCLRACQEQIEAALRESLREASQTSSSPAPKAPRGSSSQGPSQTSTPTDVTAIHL

Chain of CDK4 (P11802 2-303): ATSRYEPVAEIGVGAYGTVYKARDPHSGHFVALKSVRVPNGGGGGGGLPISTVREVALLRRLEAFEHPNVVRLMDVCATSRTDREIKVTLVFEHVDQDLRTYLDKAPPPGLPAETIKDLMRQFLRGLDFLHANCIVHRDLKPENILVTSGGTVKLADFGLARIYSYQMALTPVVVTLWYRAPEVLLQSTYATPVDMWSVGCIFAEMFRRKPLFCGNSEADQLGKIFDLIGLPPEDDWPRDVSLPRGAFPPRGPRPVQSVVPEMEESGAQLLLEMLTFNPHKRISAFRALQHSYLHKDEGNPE
Chain of CDK4 (P24385 whole entry partner): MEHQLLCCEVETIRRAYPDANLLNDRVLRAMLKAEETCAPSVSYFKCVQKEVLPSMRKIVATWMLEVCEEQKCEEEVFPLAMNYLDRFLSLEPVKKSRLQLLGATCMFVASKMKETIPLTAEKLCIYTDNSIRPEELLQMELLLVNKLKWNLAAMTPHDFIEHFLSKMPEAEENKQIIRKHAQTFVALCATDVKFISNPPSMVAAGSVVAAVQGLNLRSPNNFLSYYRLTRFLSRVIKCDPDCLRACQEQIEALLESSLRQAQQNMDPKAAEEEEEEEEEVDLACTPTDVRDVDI
Chain of CDK4/Cyclin D1 (P11802 whole entry): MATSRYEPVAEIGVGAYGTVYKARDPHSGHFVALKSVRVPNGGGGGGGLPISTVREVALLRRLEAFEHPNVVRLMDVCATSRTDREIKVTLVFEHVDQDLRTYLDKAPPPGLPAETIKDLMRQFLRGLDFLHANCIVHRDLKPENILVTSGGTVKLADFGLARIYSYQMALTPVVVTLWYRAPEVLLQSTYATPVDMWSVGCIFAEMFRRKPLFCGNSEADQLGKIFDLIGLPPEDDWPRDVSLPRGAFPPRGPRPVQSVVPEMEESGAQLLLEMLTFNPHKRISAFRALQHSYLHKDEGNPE
Chain of CDK4/Cyclin D1 (P24385 whole entry partner): as the sequence (P24385 whole entry partner) above
Chain of CDK6 (Q00534 whole entry): as the sequence (Q00534 whole entry) above
Chain of CDK6 (P30281 whole entry partner): as the sequence (P30281 whole entry partner) above

| SMILES | Ki [1] | IC50 [2] | IC50 [3] | Ki [4] |
| --- | --- | --- | --- | --- |
| Cc1nc2c(F)cc(-c3nc(N[C@@H]4CCN(S(C)(=O)=O)C[C@H]4O)ncc3Cl)cc2n1[C@H](C)CN [Example A38, (3R,4R)-4-[(4-{1-[(2R)-1-aminopropan-2-yl]-4-fluoro-2-methyl-1H-benzimidazol-6-yl}-5-chloropyrimidin-2-yl)amino]-1-(methanesulfonyl)piperidin-3-ol] | 0.5 nM | 456 nM | 598 nM | 10.2 nM |
| Cc1nc2c(F)cc(-c3nc(N[C@@H]4CCN(S(C)(=O)=O)C[C@H]4O)ncc3Cl)cc2n1CC(C)N (stereo partly drawn) [Example A40, (3R,4R)-4-({4-[1-(2-aminopropyl)-4-fluoro-2-methyl-1H-benzimidazol-6-yl]-5-chloropyrimidin-2-yl}amino)-1-(methanesulfonyl)piperidin-3-ol] | 0.3 nM | 85.5 nM | 346 nM | 3.5 nM |
| CC(C)n1c(C(C)(C)N)nc2c(F)cc(-c3nc(N[C@@H]4CCOC[C@H]4O)ncc3Cl)cc21 [Example A41, 3-({4-[2-(2-aminopropan-2-yl)-4-fluoro-1-(propan-2-yl)-1H-benzimidazol-6-yl]-5-chloropyrimidin-2-yl}amino)-1,5-anhydro-2,3-dideoxy-D-threo-pentitol] | 3.1 nM | 92.8 nM | 216 nM | 48.8 nM |
| CNCc1nc2c(F)cc(-c3nc(N[C@@H]4CCOC[C@H]4O)ncc3Cl)cc2n1C(C)C [Example A44, 1,5-anhydro-3-[(5-chloro-4-{4-fluoro-2-[(methylamino)methyl]-1-(propan-2-yl)-1H-benzimidazol-6-yl}pyrimidin-2-yl)amino]-2,3-dideoxy-D-threo-pentitol] | 4.9 nM | 76.5 nM | 408 nM | 114 nM |
| CC(C)n1c(CC(C)(C)N)nc2c(F)cc(-c3nc(N[C@@H]4CCOC[C@H]4O)ncc3Cl)cc21 [Example A45, 3-({4-[2-(2-amino-2-methylpropyl)-4-fluoro-1-(propan-2-yl)-1H-benzimidazol-6-yl]-5-chloropyrimidin-2-yl}amino)-1,5-anhydro-2,3-dideoxy-D-threo-pentitol] | 1 nM | 65.8 nM | 468 nM | 52 nM |
| Cn1nc2c(F)cc(-c3nc(N[C@@H]4CCOC[C@H]4O)ncc3Cl)cc2c1C(C)(C)N [Example A49, 3-({4-[3-(2-aminopropan-2-yl)-7-fluoro-2-methyl-2H-indazol-5-yl]-5-chloropyrimidin-2-yl}amino)-1,5-anhydro-2,3-dideoxy-D-threo-pentitol] | 0.7 nM | 76 nM | 219 nM | 14.3 nM |
| CC(C)(CN)n1cnc2c(F)cc(-c3nc(N[C@@H]4CCOC[C@H]4O)ncc3Cl)cc21 [Example A51, 3-({4-[1-(1-amino-2-methylpropan-2-yl)-4-fluoro-1H-benzimidazol-6-yl]-5-chloropyrimidin-2-yl}amino)-1,5-anhydro-2,3-dideoxy-D-threo-pentitol] | 2 nM | 245 nM | 1530 nM | 55.7 nM |
| Cc1nc2c(F)cc(-c3nc(N[C@@H]4CCOC[C@H]4O)ncc3Cl)cc2n1C(C)(C)CN [Example A52, 3-({4-[1-(1-amino-2-methylpropan-2-yl)-4-fluoro-2-methyl-1H-benzimidazol-6-yl]-5-chloropyrimidin-2-yl}amino)-1,5-anhydro-2,3-dideoxy-D-threo-pentitol] | 2.7 nM | 202 nM | 973 nM | 60.1 nM |
| CC(C)n1c([C@H](C)N)nc2c(F)cc(-c3nc(N[C@@H]4CCOC[C@H]4O)ncc3Cl)cc21 [Example A53, 3-[(4-{2-[(1S)-1-aminoethyl]-4-fluoro-1-(propan-2-yl)-1H-benzimidazol-6-yl}-5-chloropyrimidin-2-yl)amino]-1,5-anhydro-2,3-dideoxy-D-threo-pentitol] | 0.6 nM | 67.3 nM | 208 nM | 16.7 nM |
| CC(C)n1c(CN)nc2c(F)cc(-c3nc(N[C@@H]4CCOC[C@H]4O)ncc3Cl)cc21 [Example A54, 3-({4-[2-(aminomethyl)-4-fluoro-1-(propan-2-yl)-1H-benzimidazol-6-yl]-5-chloropyrimidin-2-yl}amino)-1,5-anhydro-2,3-dideoxy-D-threo-pentitol] | 2.3 nM | 173 nM | 605 nM | 37.5 nM |
| CC(C)n1c(CC2(N)CCCC2)nc2c(F)cc(-c3nc(N[C@@H]4CCOC[C@H]4O)ncc3Cl)cc21 [Example A59, 3-[(4-{2-[(1-aminocyclopentyl)methyl]-4-fluoro-1-(propan-2-yl)-1H-benzimidazol-6-yl}-5-chloropyrimidin-2-yl)amino]-1,5-anhydro-2,3-dideoxy-D-threo-pentitol] | 0.6 nM | 47.7 nM | 521 nM | 56.7 nM |
| C[C@@H](O)c1nc2c(F)cc(-c3nc(N[C@@H]4CCOC[C@H]4O)ncc3Cl)cc2n1C(C)(C)C [Example A60, 1,5-anhydro-3-[(4-{1-tert-butyl-4-fluoro-2-[(1R)-1-hydroxyethyl]-1H-benzimidazol-6-yl}-5-chloropyrimidin-2-yl)amino]-2,3-dideoxy-D-threo-pentitol] | 1.6 nM | 65.2 nM | 190 nM | 33.6 nM |
| C[C@H](O)c1nc2c(F)cc(-c3nc(N[C@@H]4CCOC[C@H]4O)ncc3Cl)cc2n1C(C)(C)C [Example A61, 1,5-anhydro-3-[(4-{1-tert-butyl-4-fluoro-2-[(1S)-1-hydroxyethyl]-1H-benzimidazol-6-yl}-5-chloropyrimidin-2-yl)amino]-2,3-dideoxy-D-threo-pentitol] | 0.2 nM | 11.4 nM | 33.5 nM | 2.6 nM |
| C[C@@H](O)c1nc2c(F)cc(-c3nc(N[C@@H]4CCN(S(C)(=O)=O)C[C@H]4O)ncc3Cl)cc2n1C(C)(C)C [Example A62, (3R,4R)-4-[(4-{1-tert-butyl-4-fluoro-2-[(1R)-1-hydroxyethyl]-1H-benzimidazol-6-yl}-5-chloropyrimidin-2-yl)amino]-1-(methanesulfonyl)piperidin-3-ol] | 0.5 nM | 27.5 nM | 66.6 nM | 8 nM |
| CC(C)n1c(C(C)(C)O)nc2c(F)cc(-c3nc(N[C@@H]4CCOC[C@H]4O)ncc3F)cc21 [Example A68, 1,5-anhydro-2,3-dideoxy-3-({5-fluoro-4-[4-fluoro-2-(2-hydroxpropan-2-yl)-1-(propan-2-yl)-1H-benzimidazol-6-yl]pyrimidin-2-yl}amino)-D-threo-pentitol] | 0.7 nM | 48.7 nM | 235 nM | 14.3 nM |
| CC(C)n1c(C(F)F)nc2c(F)cc(-c3nc(N[C@@H]4CCN(S(C)(=O)=O)C[C@H]4O)ncc3Cl)cc21 [Example A69, (3R,4R)-4-({5-chloro-4-[2-(difluoromethyl)-4-fluoro-1-(propan-2-yl)-1H-benzimidazol-6-yl]pyrimidin-2-yl}amino)-1-(methanesulfonyl)piperidin-3-ol] | 0.7 nM | 101 nM | 238 nM | 4.9 nM |
